± gives the standard deviation of the averaged measurements.
Tests used:
[1] = compound: CCn1c(C(=O)N(C2CC2)C2CC2)cc2c3c(ncn3C)c(Nc3cc(C)n(C)n3)nc21; assay: surviving fraction relative to DMSO-only wells; higher = less growth inhibition; conditions: exposure time: 5 days
Procedure, shortened: (§1)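 Inhibitors at 0.5, 1, 5, 10, 50, 100, 500 and 1000 nM were applied continuously for five days to tumour cell lines seeded in log phase at 250–500 cells per well in 384-well plates 24 hours earlier. Viability was measured by CellTiter-Glo luminescence and expressed as surviving fraction relative to the median of DMSO-only wells. Luminescence was taken after 10 minutes at room temperature.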

FORETINIB = compound: COc1cc2c(Oc3ccc(NC(=O)C4(C(=O)Nc5ccc(F)cc5)CC4)cc3F)ccnc2cc1OCCCN1CCOCC1 [FORETINIB]; assay: as above; conditions: exposure time: 5 days
Procedure, shortened: as §1

Test System | surviving fraction ([1]; 0.5 nM) | surviving fraction ([1]; 1 nM) | surviving fraction ([1]; 5 nM) | surviving fraction ([1]; 10 nM) | surviving fraction ([1]; 50 nM) | surviving fraction ([1]; 100 nM) | surviving fraction ([1]; 500 nM) | surviving fraction ([1]; 1000 nM) | surviving fraction (FORETINIB; 0.5 nM) | surviving fraction (FORETINIB; 1 nM) | surviving fraction (FORETINIB; 5 nM) | surviving fraction (FORETINIB; 10 nM) | surviving fraction (FORETINIB; 50 nM) | surviving fraction (FORETINIB; 100 nM) | surviving fraction (FORETINIB; 500 nM) | surviving fraction (FORETINIB; 1000 nM)
22RV1 PROSTATE | 0.972 ± 0.044 | 1.03 ± 0.037 | 0.975 ± 0.019 | 1.02 ± 0.017 | 1.07 ± 0.031 | 1.03 ± 0.079 | 1.07 ± 0.018 | 1.08 ± 0.064 | 1.02 ± 0.065 | 1.04 ± 0.033 | 0.98 ± 0.15 | 0.984 ± 0.043 | 0.965 ± 0.12 | 0.99 ± 0.17 | 0.611 ± 0.061 | 0.511 ± 0.015
93VU HEADNECK | 0.879 ± 0.12 | 0.834 ± 0.051 | 1.05 ± 0.031 | 0.976 ± 0.029 | 1.06 ± 0.042 | 1.04 ± 0.1 | 0.832 ± 0.027 | 0.775 ± 0.11 | 1.21 ± 0.1 | 1.21 ± 0.048 | 1.2 ± 0.13 | 1.07 ± 0.039 | 1.04 ± 0.024 | 1.04 ± 0.025 | 0.849 ± 0.13 | 0.224 ± 0.076
143B BONE | 1 ± 0.0057 | 1 ± 0.03 | 1.02 ± 0.012 | 0.9945 ± 0.005 | 1.04 ± 0.025 | 1.02 ± 0.02 | 1.01 ± 0.026 | 1.023 ± 0.0099 | 1.05 ± 0.046 | 1.03 ± 0.033 | 1.04 ± 0.015 | 1.02 ± 0.05 | 1.01 ± 0.0099 | 1.038 ± 0.0035 | 0.86 ± 0.015 | 0.755 ± 0.03
A549 LUNG | 0.956 ± 0.034 | 0.941 ± 0.018 | 0.949 ± 0.02 | 0.963 ± 0.022 | 0.958 ± 0.057 | 1.024 ± 0.0095 | 1 ± 0.084 | 1.02 ± 0.03 | 1.083 ± 0.0085 | 1.1 ± 0.018 | 1.08 ± 0.028 | 1.05 ± 0.016 | 1.06 ± 0.045 | 1.06 ± 0.041 | 0.703 ± 0.012 | 0.542 ± 0.021
ASKA SYNOVIAL | 1.06 ± 0.071 | 0.998 ± 0.1 | 1.06 ± 0.064 | 1.05 ± 0.062 | 1.15 ± 0.092 | 1.11 ± 0.063 | 1.07 ± 0.057 | 0.953 ± 0.051 | 1.11 ± 0.065 | 1.14 ± 0.037 | 1.06 ± 0.085 | 1.07 ± 0.075 | 1.13 ± 0.042 | 1.03 ± 0.044 | 0.371 ± 0.026 | 0.297 ± 0.0071
BT20 BREAST | 1.07 ± 0.032 | 0.999 ± 0.25 | 1.09 ± 0.24 | 1 ± 0.2 | 1.1 ± 0.26 | 1.07 ± 0.16 | 1.16 ± 0.22 | 1.24 ± 0.18 | 1.11 ± 0.032 | 1.14 ± 0.13 | 1.12 ± 0.026 | 1.13 ± 0.045 | 1.22 ± 0.12 | 1.13 ± 0.037 | 0.382 ± 0.091 | 0.136 ± 0.017
BT549 BREAST | 1.14 ± 0.22 | 1 ± 0.046 | 1.06 ± 0.11 | 1.18 ± 0.12 | 0.934 ± 0.19 | 0.965 ± 0.2 | 1.04 ± 0.1 | 0.887 ± 0.13 | 1.09 ± 0.059 | 1.08 ± 0.059 | 1.09 ± 0.15 | 1.12 ± 0.089 | 1.08 ± 0.12 | 1.15 ± 0.12 | 0.701 ± 0.022 | 0.222 ± 0.014
C33A CERVIX | 0.809 ± 0.035 | 0.801 ± 0.11 | 0.926 ± 0.082 | 1.03 ± 0.19 | 0.895 ± 0.049 | 1.08 ± 0.15 | 0.768 ± 0.025 | 0.657 ± 0.1 | 1.02 ± 0.059 | 1.06 ± 0.086 | 1.1 ± 0.042 | 1.14 ± 0.098 | 1.03 ± 0.041 | 1.04 ± 0.047 | 0.596 ± 0.057 | 0.508 ± 0.029
CADOES1 SOFT TISSUE | 0.958 ± 0.066 | 0.961 ± 0.061 | 0.905 ± 0.13 | 0.92 ± 0.068 | 0.889 ± 0.16 | 0.94 ± 0.026 | 0.913 ± 0.033 | 0.988 ± 0.091 | 0.986 ± 0.23 | 0.887 ± 0.17 | 0.988 ± 0.25 | 0.876 ± 0.043 | 0.947 ± 0.02 | 0.795 ± 0.1 | 0.109 ± 0.011 | 0.088 ± 0.0062
CAL51 BREAST | 0.972 ± 0.049 | 0.985 ± 0.034 | 0.98 ± 0.036 | 0.976 ± 0.043 | 1.02 ± 0.043 | 1.06 ± 0.031 | 1.02 ± 0.034 | 0.99 ± 0.015 | 0.991 ± 0.039 | 0.964 ± 0.053 | 1.04 ± 0.011 | 0.9858 ± 0.0063 | 0.993 ± 0.064 | 0.979 ± 0.052 | 0.162 ± 0.0044 | 0.136 ± 0.01
CAL72 BONE | 1.1 ± 0.015 | 1.11 ± 0.035 | 1.06 ± 0.019 | 1.035 ± 0.005 | 1.12 ± 0.022 | 1.16 ± 0.059 | 1.13 ± 0.028 | 1.1 ± 0.035 | 1.1 ± 0.12 | 1.08 ± 0.12 | 1.13 ± 0.016 | 1.11 ± 0.12 | 1.17 ± 0.069 | 1.13 ± 0.041 | 0.655 ± 0.13 | 0.326 ± 0.088
CAL120 BREAST | 0.876 ± 0.038 | 0.911 ± 0.018 | 0.937 ± 0.036 | 0.924 ± 0.056 | 0.962 ± 0.0098 | 0.94 ± 0.036 | 0.941 ± 0.026 | 0.897 ± 0.012 | 0.95 ± 0.035 | 1.01 ± 0.033 | 0.997 ± 0.026 | 0.993 ± 0.042 | 0.997 ± 0.069 | 0.97 ± 0.014 | 0.683 ± 0.03 | 0.562 ± 0.016
CASKI CERVIX | 0.85 ± 0.039 | 0.932 ± 0.015 | 0.972 ± 0.055 | 0.946 ± 0.073 | 0.994 ± 0.049 | 1 ± 0.062 | 0.985 ± 0.029 | 1.04 ± 0.06 | 0.902 ± 0.072 | 0.929 ± 0.013 | 0.962 ± 0.019 | 0.943 ± 0.018 | 0.988 ± 0.062 | 0.976 ± 0.06 | 0.322 ± 0.026 | 0.188 ± 0.0057
CHLA90 AUTONOMIC GANGLIA | 0.986 ± 0.026 | 0.944 ± 0.037 | 0.905 ± 0.032 | 0.918 ± 0.095 | 0.961 ± 0.011 | 0.975 ± 0.003 | 0.945 ± 0.065 | 0.968 ± 0.026 | 0.983 ± 0.048 | 1.1 ± 0.24 | 0.977 ± 0.069 | 0.909 ± 0.045 | 0.962 ± 0.13 | 0.941 ± 0.12 | 0.62 ± 0.11 | 0.493 ± 0.12
CME SYNOVIAL | 1.27 ± 0.18 | 1.22 ± 0.11 | 1.29 ± 0.15 | 1.22 ± 0.064 | 1.294 ± 0.004 | 1.22 ± 0.072 | 1.21 ± 0.11 | 1.09 ± 0.06 | 1.39 ± 0.037 | 1.39 ± 0.12 | 1.41 ± 0.074 | 1.28 ± 0.14 | 1.27 ± 0.08 | 1.18 ± 0.12 | 0.887 ± 0.1 | 0.285 ± 0.048
COLO320DM LARGE INTESTINE | 1.03 ± 0.053 | 1.11 ± 0.0081 | 1.15 ± 0.1 | 1.08 ± 0.11 | 1.17 ± 0.14 | 1.18 ± 0.095 | 1.14 ± 0.063 | 1.27 ± 0.22 | 1.09 ± 0.087 | 1.13 ± 0.066 | 1.07 ± 0.026 | 1.12 ± 0.076 | 1.05 ± 0.045 | 1.08 ± 0.11 | 0.517 ± 0.023 | 0.429 ± 0.05
DU4475 BREAST | 0.875 ± 0.26 | 0.938 ± 0.15 | 0.819 ± 0.24 | 0.887 ± 0.2 | 0.713 ± 0.23 | 0.675 ± 0.29 | 0.91 ± 0.46 | 1.05 ± 0.35 | 0.942 ± 0.16 | 1.03 ± 0.019 | 0.931 ± 0.066 | 0.971 ± 0.19 | 0.979 ± 0.11 | 0.821 ± 0.13 | 0.715 ± 0.031 | 0.644 ± 0.043
H23 LUNG | 0.966 ± 0.048 | 0.982 ± 0.013 | 0.972 ± 0.025 | 0.981 ± 0.03 | 0.99 ± 0.015 | 0.981 ± 0.025 | 0.894 ± 0.021 | 0.903 ± 0.054 | 1.04 ± 0.058 | 1.07 ± 0.073 | 1.06 ± 0.073 | 0.982 ± 0.035 | 0.976 ± 0.079 | 0.986 ± 0.08 | 0.889 ± 0.024 | 0.388 ± 0.015
HCC78 LUNG | 0.942 ± 0.17 | 0.672 ± 0.3 | 0.745 ± 0.26 | 0.888 ± 0.17 | 0.774 ± 0.21 | 0.914 ± 0.089 | 0.707 ± 0.16 | 0.834 ± 0.2 | 0.779 ± 0.1 | 0.92 ± 0.14 | 0.89 ± 0.12 | 0.752 ± 0.091 | 0.257 ± 0.06 | 0.259 ± 0.039 | 0.179 ± 0.025 | 0.0403 ± 0.0068
HCC202 BREAST | 1.32 ± 0.046 | 1.04 ± 0.17 | 1.16 ± 0.22 | 1.38 ± 0.23 | 1.4 ± 0.19 | 1.23 ± 0.057 | 1.35 ± 0.36 | 1.08 ± 0.062 | 1.04 ± 0.11 | 1.33 ± 0.14 | 1.24 ± 0.37 | 1.02 ± 0.033 | 1.48 ± 0.2 | 1.34 ± 0.33 | 1.18 ± 0.15 | 0.995 ± 0.23

From the supplement of paper PMC6045584
